# Measured values: patent publication US20050209157A1, “Short bioactive peptides and methods for their use” (priority 2001, published 2005)
# Read-outs that look alike come from different tables or passages of the source. No end group written: not given here.
# Legend:
# [1] = system: Pseudomonas aeruginosa H187; type: cell-based; conditions: in µg/mL
# [2] = system: Candida glabrata ATCC15126; assay: Antimicrobial assays II, NCCLS broth microdilution MIC; type: cell-based; conditions: in µg/mL
# S. typhimurium 14028S = type: cell-based, Salmonella typhimurium; conditions: for S. typhimurium 14028S MIC: mean of three, 16 to 20 hours at 35° C., in µg/mL
# [3] = system: human red blood cells (RBC); assay: in vitro; type: cell-based; conditions: hemolytic assay, concentration at 50% hemolysis, 1 hour at 37° C.
# SW480 = assay: Anti-cancer assay, MTT, LD50; type: cell-based; conditions: SW480 colon adenocarcinoma line, 24 hours with peptide
# Text: (§1) Numbers are LD50 values (μg/mL).
# BMKC = assay: Anti-cancer assay, MTT, LD50; type: cell-based; conditions: BMKC cloned melanoma line, 24 hours with peptide
# Text: as §1
# MCF7 = assay: Anti-cancer assay, MTT, LD50; type: cell-based; conditions: MCF7 breast adenocarcinoma line, MTT, 24 hours with peptide
# Text: as §1
# P. aeruginosa H374 [4] = type: cell-based, Pseudomonas aeruginosa; conditions: for MIC Cm-comb.: MIC of chloramphenicol with peptide at ¼ MIC; for MIC Nal-comb.: MIC of nalidixic acid with peptide at ¼ MIC; for FIC Index: 0.5 or less = synergy
# Procedure: (§2) The synergistic effects of the inventive peptides with either chloramphenicol or nalidixic acid against efflux mutants of Pseudomonas aeruginosa were investigated. The MIC values were determined for either nalidixic acid or chloramphenicol alone as baselines. Peptides were added at their ¼ MIC concentration, and the concentration of either nalidixic acid or chloramphenicol to arrive at the MIC was determined. […] The fractional inhibitory concentration (FIC) index was used to determine synergy between peptides and antibiotics. Two-fold serial dilutions of antibiotic were tested in the presence of a constant amount of peptide, equal to one quarter of peptide MIC. The FIC index was determined as follows: FIC=0.25+MICantibiotic in combination/MICantibiotic alone. An FIC index of 0.5 or less is considered as synergy.
# P. aeruginosa = type: cell-based, Pseudomonas aeruginosa; conditions: P. aeruginosa H744; MIC of nalidixic acid with peptide at ¼ MIC
# Procedure: as §2
# P. aeruginosa H774 = type: cell-based, Pseudomonas aeruginosa; conditions: P. aeruginosa H744; nalidixic acid + peptide at ¼ MIC; 0.5 or less = synergy
# Procedure: as §2
# E. coli UB1005 = type: cell-based, Escherichia coli; conditions: for E. coli UB1005 MIC: mean of three, 16 to 20 hours at 35° C., in µg/mL
# P. aeruginosa H374 [5] = type: cell-based, Pseudomonas aeruginosa; conditions: for P. aeruginosa H374 MIC: mean of three, 16 to 20 hours at 35° C.
# in vitro = conditions: human, WI38 normal lung fibroblast cells, LD50 WI38, WI38 normal lung fibroblast line, MTT, 24 hours with peptide
# S. epidermidis C621 = type: cell-based, Staphylococcus epidermidis; conditions: Table 13; in µg/mL
# Candida albicans 105 = type: cell-based; conditions: Table 13; in µg/mL
# S. aureus (MRSA) = type: cell-based, Staphylococcus aureus; conditions: Table 13, strain SAP0017; in µg/mL
# [6] = system: yeast (Saccharomyces cerevisiae); assay: Antimicrobial assay I, yeast assay in RPMI 1640; type: cell-based; conditions: RPMI 1640 media
# [7] = system: Pseudomonas aeruginosa ATCC 9027; assay: Antimicrobial assay I, MIC by OD measurement; type: cell-based; conditions: 37° C. for 24 hours, absorbance 620 nm
# [8] = system: Staphylococcus aureus ATCC 6538; assay: Antimicrobial assay I, MIC by OD measurement; type: cell-based; conditions: 37° C. for 24 hours, absorbance 620 nm
# H1299 = assay: Anti-cancer assay, MTT, LD50; type: cell-based; conditions: 24 hours with peptide, lung large cell carcinoma
# Text: as §1
# HeLaS3 = assay: Anti-cancer assay, MTT, LD50; type: cell-based; conditions: 24 hours with peptide, cervical carcinoma
# Text: as §1
# PC3 = assay: Anti-cancer assay, MTT, LD50; type: cell-based; conditions: 24 hours with peptide, prostate adenocarcinoma
# Text: as §1
# WI38 = conditions: MTT, 24 hours with peptide; for WI38 LD50: normal fibroblast line
# [9] = chloramphenicol + peptide at ¼ MIC
# [10] = nalidixic acid + peptide at ¼ MIC, FIC=0.25+MIC comb/MIC alone
compound,measurement,setting,value
CC(C)C[C@H](NC(=O)[C@H](C)NC(=O)[C@H](CCCCN)NC(=O)[C@H](CC(C)C)NC(=O)[C@H](C)NC(=O)[C@H](CC(C)C)NC(=O)[C@H](C)NC(=O)[C@H](CC(C)C)NC(=O)[C@H](CCCCN)NC(=O)[C@H](C)NC(=O)[C@H](CC(C)C)NC(=O)[C@H](CCCCN)NC(=O)[C@H](CCCCN)NC(=O)[C@H](C)NC(=O)[C@H](CC(C)C)NC(=O)[C@H](CCCCN)NC(=O)[C@H](CCCCN)NC(=O)[C@H](CC(C)C)NC(=O)[C@H](CCCCN)NC(=O)[C@H](CCCCN)NC(=O)[C@H](C)NC(=O)[C@H](CC(C)C)NC(=O)[C@H](CCCCN)NC(=O)[C@H](CCCCN)NC(=O)[C@H](C)NC(=O)[C@@H](N)Cc1ccccc1)C(=O)N[C@@H](C)C(=O)N[C@@H](CC(C)C)C(=O)N[C@@H](CCCCN)C(=O)N[C@@H](C)C(=O)O [P100 (163)],MIC P. aeruginosa H187,[1]; Table 8,32
same,MIC C. glabrata ATCC15126,[2]; Table 8,>128
"CC(C)C[C@H](NC(=O)[C@H](C)NC(=O)[C@H](CCCCN)NC(=O)[C@H](CC(C)C)NC(=O)[C@H](C)NC(=O)[C@H](CC(C)C)NC(=O)[C@H](C)NC(=O)[C@H](CC(C)C)NC(=O)[C@H](CCCCN)NC(=O)[C@H](C)NC(=O)[C@H](CC(C)C)NC(=O)[C@H](CCCCN)NC(=O)[C@H](CCCCN)NC(=O)[C@H](C)NC(=O)[C@H](CC(C)C)NC(=O)[C@H](CCCCN)NC(=O)[C@H](CCCCN)NC(=O)[C@H](CC(C)C)NC(=O)[C@H](CCCCN)NC(=O)[C@H](CCCCN)NC(=O)[C@H](C)NC(=O)[C@H](CC(C)C)NC(=O)[C@H](CCCCN)NC(=O)[C@H](CCCCN)NC(=O)[C@H](C)NC(=O)[C@@H](N)Cc1ccccc1)C(=O)N[C@@H](C)C(=O)N[C@@H](CC(C)C)C(=O)N[C@@H](CCCCN)C(=O)N[C@@H](C)C(=O)O [P100, reference compound]",S. typhimurium 14028S MIC,S. typhimurium 14028S,4
same,LD50,[3],> (> indicates greater than 1000)
same,LD50 SW480,SW480,82 µg/mL
same,LD50 BMKC,BMKC,120 µg/mL
same,LD50 MCF7,MCF7,175 µg/mL
same,MIC Cm-comb.,P. aeruginosa H374 [4],16 µg/mL
same,MIC Nal-comb.,P. aeruginosa H374 [4],2500 µg/mL
same,FIC Index,P. aeruginosa H374 [4]; [9],1.25
same,FIC Index,P. aeruginosa H374 [4]; [10],0.75
same,MIC Nal-comb.,P. aeruginosa,624 µg/mL
same,FIC Index,P. aeruginosa H774,1.25
same,E. coli UB1005 MIC,E. coli UB1005,0.5
same,P. aeruginosa H374 MIC,P. aeruginosa H374 [5],8 µg/mL
same,CC50 at 24 h,in vitro,95 µg/mL
FAKKFAKKFKKFAKKFAKFAFAF-NH2 [P301 (147)],MIC S. typhimurium 14028S,S. typhimurium 14028S; Table 12,8 µg/mL
same,MIC S. epidermis C621,S. epidermidis C621,4
same,MIC P. aeruginosa H187,[1]; Table 12,8
same,MIC C. glabrata ATCC15126,[2]; Table 13,32
same,MIC C. albicans 105,Candida albicans 105,32
same,MIC S. aureus SAP0017,S. aureus (MRSA),8
same,MIC E. coli UB1005,E. coli UB1005; Table 12,8 µg/mL
same,MIC P. aeruginosa H374,"P. aeruginosa H374 [5]; Table 12, in µg/mL",4
FAKKLAKKLKKLAKLALAL-OH [P29 (14)],MIC P. aeruginosa H187,[1]; Table 8,32
same,MIC C. glabrata ATCC15126,[2]; Table 8,128
"FAKKLAKLAKKALAL-NH2 [P39, FAKKLAKLAKKALAL-NH2]",S. typhimurium 14028S MIC,S. typhimurium 14028S,16
same,yeast (MIC or MFC),[6],100 µg/mL
same,LD50,[3],> (> indicates greater than 1000)
same,paerug9027 (MIC),[7],25 µg/mL
same,staph6538 (MIC),[8],100 µg/mL
same,H1299 LD50,H1299,420 µg/mL
same,HeLaS3 LD50,HeLaS3,620 µg/mL
same,LD50 SW480,SW480,435 µg/mL
same,PC3 LD50,PC3,310 µg/mL
same,LD50 BMKC,BMKC,510 µg/mL
same,LD50 MCF7,MCF7,130 µg/mL
same,MIC Cm-comb.,P. aeruginosa H374 [4],8 µg/mL
same,MIC Nal-comb.,P. aeruginosa H374 [4],1250 µg/mL
same,FIC Index,P. aeruginosa H374 [4]; [9],0.75
same,FIC Index,P. aeruginosa H374 [4]; [10],0.5
same,MIC Nal-comb.,P. aeruginosa,624 µg/mL
same,FIC Index,P. aeruginosa H774,1.25
same,E. coli UB1005 MIC,E. coli UB1005,4
same,P. aeruginosa H374 MIC,P. aeruginosa H374 [5],16 µg/mL
same,WI38 LD50,WI38,300 µg/mL
same,CC50 at 24 h,in vitro,300 µg/mL
FAKKLAKLAKKLAKAL-NH2 [P109 (73)],MIC P. aeruginosa H187,[1]; Table 8,64
same,MIC C. glabrata ATCC15126,[2]; Table 8,128
FAKKLAKLAKKLAKAL-NH2 [P109],S. typhimurium 14028S MIC,S. typhimurium 14028S,32
same,yeast (MIC or MFC),[6],200 µg/mL
same,LD50,[3],> (> indicates greater than 1000)
same,paerug9027 (MIC),[7],200 µg/mL
same,staph6538 (MIC),[8],> (> indicates greater than 200 μg/mL)
same,H1299 LD50,H1299,> (> indicates greater than 1000)
same,HeLaS3 LD50,HeLaS3,> (> indicates greater than 1000)
same,LD50 SW480,SW480,> (> indicates greater than 1000)
same,PC3 LD50,PC3,> (> indicates greater than 1000)
same,LD50 BMKC,BMKC,> (> indicates greater than 1000)
same,LD50 MCF7,MCF7,> (> indicates greater than 1000)
same,MIC Cm-comb.,P. aeruginosa H374 [4],16 µg/mL
same,MIC Nal-comb.,P. aeruginosa H374 [4],2500 µg/mL
same,FIC Index,P. aeruginosa H374 [4]; [9],1.25
same,FIC Index,P. aeruginosa H374 [4]; [10],0.75
same,MIC Nal-comb.,P. aeruginosa,624 µg/mL
same,FIC Index,P. aeruginosa H774,1.25
same,E. coli UB1005 MIC,E. coli UB1005,16
same,P. aeruginosa H374 MIC,P. aeruginosa H374 [5],8 µg/mL
same,WI38 LD50,WI38,> (> indicates greater than 1000)
same,LD50 WI38,WI38; WI38 normal lung fibroblast line,> (> indicates greater than 1000)
FAKKLLAKALKL-NH2 [P110 (74)],MIC P. aeruginosa H187,[1]; Table 8,64
same,MIC C. glabrata ATCC15126,[2]; Table 8,128
FAKKLLAKALKL-NH2 [P110],S. typhimurium 14028S MIC,S. typhimurium 14028S,32
same,yeast (MIC or MFC),[6],200 µg/mL
same,LD50,[3],> (> indicates greater than 1000)
same,paerug9027 (MIC),[7],200 µg/mL
same,staph6538 (MIC),[8],> (> indicates greater than 200 μg/mL)
same,H1299 LD50,H1299,95 µg/mL
same,HeLaS3 LD50,HeLaS3,540 µg/mL
same,LD50 SW480,SW480,325 µg/mL
same,PC3 LD50,PC3,> (> indicates greater than 1000)
same,LD50 BMKC,BMKC,400 µg/mL
same,LD50 MCF7,MCF7,180 µg/mL
same,MIC Cm-comb.,P. aeruginosa H374 [4],16 µg/mL
same,MIC Nal-comb.,P. aeruginosa H374 [4],2500 µg/mL
same,FIC Index,P. aeruginosa H374 [4]; [9],1.25
same,FIC Index,P. aeruginosa H374 [4]; [10],0.75
same,MIC Nal-comb.,P. aeruginosa,624 µg/mL
same,FIC Index,P. aeruginosa H774,1.25
same,E. coli UB1005 MIC,E. coli UB1005,16
same,P. aeruginosa H374 MIC,P. aeruginosa H374 [5],8 µg/mL
same,WI38 LD50,WI38,45 µg/mL
same,CC50 at 24 h,in vitro,45 µg/mL
"LPKWKVFKKIEKVGRNIRNGIVKAGPAIAVLGEAKALG-NH2 [P306, reference compound]",S. typhimurium 14028S MIC,S. typhimurium 14028S,4
same,LD50,[3],> (> indicates greater than 1000)
same,H1299 LD50,H1299,120 µg/mL
same,HeLaS3 LD50,HeLaS3,250 µg/mL
same,LD50 SW480,SW480,240 µg/mL
same,PC3 LD50,PC3,370 µg/mL
same,LD50 BMKC,BMKC,170 µg/mL
same,LD50 MCF7,MCF7,50 µg/mL
same,MIC Cm-comb.,P. aeruginosa H374 [4],8 µg/mL
same,MIC Nal-comb.,P. aeruginosa H374 [4],5000 µg/mL
same,FIC Index,P. aeruginosa H374 [4]; [9],0.75
same,FIC Index,P. aeruginosa H374 [4]; [10],1.25
same,MIC Nal-comb.,P. aeruginosa,312 µg/mL
same,FIC Index,P. aeruginosa H774,0.75
same,E. coli UB1005 MIC,E. coli UB1005,4
same,P. aeruginosa H374 MIC,P. aeruginosa H374 [5],8 µg/mL
same,WI38 LD50,WI38,320 µg/mL
same,CC50 at 24 h,in vitro,320 µg/mL
